Results from paper PMC6278315, “Microwave-Assisted Expeditious Synthesis of 2-Alkyl-2-(N-arylsulfonylindol-3-yl)-3-N-acyl-5-aryl-1,3,4-oxadiazolines Catalyzed by HgCl2 under Solvent-Free Conditions as Potential Anti-HIV-1 Agents” (Molecules, 2018).
≈ marks a conversion by molar mass, not a printed value.

Key:
[1] = MTT-based cytotoxicity assay; conditions: human, C8166 cells, concentration causing 50% reduction in total C8166 cell number, means of two separate experiments, read-out: CC50 (50% cytotoxic concentration)
Procedure: (§1) Cell line (C8166) and the laboratory-derived virus (HIV-1IIIB) were obtained from MRC, AIDS Reagent Project, London, UK. C8166 was maintainedin RPMI-1640 supplemented with 10% heat-inactivated newborn calf serum (Gibco, Grand Island, NY, USA). The cells used in all experiments were in log-phase growth. The 50% HIV-1IIIB tissue culture infectious dose (TCID50) in C8166 cells was determined and calculated by the Reed and Muench method. Virus stocks were stored in small aliquots at −70 °C.
Cellular toxicity of 2-alkyl-2-(N-arylsulfonylindol-3-yl)-3-N-acyl-5-aryl-1,3,4-oxadiazolines 3s–r′ on C8166 cells was assessed by MTT method as described previously. Briefly, cells were seeded on 96-well microtiter plate in the absence or presence of various concentrations of 2-alkyl-2-(N-arylsulfonylindol-3-yl)-3-N-acyl-5-aryl-1,3,4-oxadiazolines in triplicate and incubated at 37 °C in a humid atmosphere of 5% CO2 for 3 day. The supernatants were discarded and MTT reagent (5 mg/mL in PBS) was added to each wells, then incubated for 4 h, 100 μL of 50% N,N-dimethylformamide (DMF)-20% SDS was added. After the formazan was dissolved completely, the plates were read on a Bio-TekElx800 ELISA reader (BioTek, Winooski, VT, USA) at 595/630 nm. The cytotoxic concentration that caused the reduction of viable C8166 cells by 50% (CC50) was determined from dose–response curve.

[2] = test system: HIV-1IIIB; test: Syncytia assay (anti-HIV-1 activity); format: cell-based; conditions: Human immunodeficiency virus 1, 72 h; concentration reducing syncytia formation by 50%; C8166 cells infected with HIV-1IIIB, M.O.I 0.06, 3 days; means of two separate experiments; read-out: EC50 (50% effective concentration)
Procedure: as §1
In the presence of 100 μL various concentrations of 2-alkyl-2-(N-arylsulfonylindol-3-yl)-3-N-acyl-5-aryl-1,3,4-oxadiazolines, C8166 cells (4 × 10^5/mL) were infected with virus HIV-1IIIB at a multiplicity of infection (M.O.I) of 0.06. The final volume per well was 200 μL. Control assays were performed without the testing compounds in HIV-1IIIB infected and uninfected cultures. After 3 days of culture, the cytopathic effect (CPE) was measured by counting the number of syncytia. Percentage inhibition of syncytia formation was calculated and 50% effective concentration (EC50) was calculated. AZT (Sigma-Aldrich, St. Louis, MO, USA) was used as a positive control. Therapeutic index (TI) = CC50/EC50.

SMILES | EC50 [2] [µg/mL] | melting point [°C] | CC50 at 3 day [1] [µg/mL]
CC(=O)N1N=C(c2ccccc2)OC1(C)c1cn(S(=O)(=O)c2ccc(Cl)cc2)c2ccc(C#N)cc12 (stereo not drawn) [3a′, 2-Methyl-2-(N-p-chlorobenzenesulfonyl-5-cyanoindol-3-yl)-3-N-acetyl-5-phenyl-1,3,4-oxadiazolines] | 3.63 (≈ 6.99 µM) | 128 to 130 | 113 (≈ 218 µM)
CC(=O)N1N=C(c2ccccc2)OC1(C)c1cn(S(=O)(=O)c2ccc(C)cc2)c2ccc([N+](=O)[O-])cc12 (stereo not drawn) [3b′, 2-Methyl-2-(N-p-methylbenzenesulfonyl-5-nitroindol-3-yl)-3-N-acetyl-5-phenyl-1,3,4-oxadiazolines] | 9.54 (≈ 18.4 µM) | 110 to 112 | 133 (≈ 256 µM)
CC(=O)N1N=C(c2ccccc2)OC1(C)c1cn(S(=O)(=O)c2ccc(Cl)cc2)c2ccc([N+](=O)[O-])cc12 (stereo not drawn) [3c′, 2-Methyl-2-(N-p-chlorobenzenesulfonyl-5-nitroindol-3-yl)-3-N-acetyl-5-phenyl-1,3,4-oxadiazolines] | 6.01 (≈ 11.2 µM) | 108 to 110 | 53.4 (≈ 99.1 µM)
CCC1(c2cn(S(=O)(=O)c3ccccc3)c3ccccc23)OC(c2ccccc2)=NN1C(C)=O (stereo not drawn) [3d′, 2-Ethyl-2-(N-benzenesulfonylindol-3-yl)-3-N-acetyl-5-phenyl-1,3,4-oxadiazolines] | 20.3 (≈ 42.9 µM) | 224 to 226 | 105 (≈ 222 µM)
CC(=O)N1N=C(c2ccccc2)OC1c1cn(S(=O)(=O)c2ccc(Cl)cc2)c2ccccc12 (stereo not drawn) [3k′] | 19.4 (≈ 40.4 µM) | – | 16.6 (≈ 34.5 µM)
COc1ccc(S(=O)(=O)n2cc(C3OC(c4ccccc4)=NN3C(C)=O)c3ccccc32)cc1 (stereo not drawn) [3m′] | 22.5 (≈ 47.3 µM) | – | 12.3 (≈ 25.9 µM)
CCC(=O)N1N=C(c2ccccc2)OC1c1cn(S(=O)(=O)c2ccc(C)cc2)c2ccccc12 (stereo not drawn) [3q′] | 3 (≈ 6.34 µM) | – | 78 (≈ 165 µM)
CCC(=O)N1N=C(c2ccccc2)OC1c1cn(S(=O)(=O)c2ccc(C)cc2)c2ccc(C#N)cc12 (stereo not drawn) [3r′] | 4.01 (≈ 8.04 µM) | – | 98.3 (≈ 197 µM)
CC(=O)N1N=C(c2ccccc2)OC1(C)c1cn(S(=O)(=O)c2ccccc2)c2cc(C)ccc12 (stereo not drawn) [3y, 2-Methyl-2-(N-benzenesulfonyl-6-methylindol-3-yl)-3-N-acetyl-5-phenyl-1,3,4-oxadiazolines] | 6.12 (≈ 12.9 µM) | 142 to 144 | > 200
CC(=O)N1N=C(c2ccccc2)OC1(C)c1cn(S(=O)(=O)c2ccccc2)c2ccc(C#N)cc12 (stereo not drawn) [3z, 2-Methyl-2-(N-benzenesulfonyl-5-cyanoindol-3-yl)-3-N-acetyl-5-phenyl-1,3,4-oxadiazolines] | 17.6 (≈ 36.3 µM) | 208 to 210 | 53 (≈ 109 µM)
Cc1cn([C@H]2C[C@H](N=[N+]=[N-])[C@@H](CO)O2)c(=O)[nH]c1=O [AZT, 3′-azido-3′-deoxythymidine, reference compound] | 0.00199 (≈ 0.00745 µM) | – | 1370 (≈ 5140 µM)

Continued, in another order:

EC50 [2] [µg/mL] | melting point [°C] | SMILES | CC50 at 3 day [1] [µg/mL]
15.5 (≈ 33.8 µM) | – | CC(=O)N1N=C(c2ccccc2)OC1c1cn(S(=O)(=O)c2ccc(C)cc2)c2ccccc12 (stereo not drawn) [3e′] | 15.1 (≈ 32.8 µM)
1.79 (≈ 3.65 µM) | – | CC(=O)N1N=C(c2ccccc2)OC1c1cn(S(=O)(=O)c2cccc([N+](=O)[O-])c2)c2ccccc12 (stereo not drawn) [3f′] | 43.5 (≈ 88.6 µM)
22.5 (≈ 47.5 µM) | – | CC(=O)N1N=C(c2ccccc2)OC1c1cn(S(=O)(=O)c2ccc(C)cc2)c2cc(C)ccc12 (stereo not drawn) [3g′] | 80.8 (≈ 171 µM)
3.53 (≈ 6.72 µM) | – | CC(=O)N1N=C(c2ccccc2)OC1c1cn(S(=O)(=O)c2ccc(Cl)c([N+](=O)[O-])c2)c2ccccc12 (stereo not drawn) [3h′] | 4.8 (≈ 9.14 µM)
0.51 (≈ 1.01 µM) | – | CC(=O)N1N=C(c2ccccc2)OC1c1cn(S(=O)(=O)c2cccc([N+](=O)[O-])c2)c2cc(C)ccc12 (stereo not drawn) [3i′] | 20.2 (≈ 40 µM)
12.4 (≈ 23 µM) | – | CC(=O)N1N=C(c2ccccc2)OC1c1cn(S(=O)(=O)c2ccc(Cl)c([N+](=O)[O-])c2)c2cc(C)ccc12 (stereo not drawn) [3j′] | 2.26 (≈ 4.19 µM)
57.5 (≈ 116 µM) | – | CC(=O)N1N=C(c2ccccc2)OC1c1cn(S(=O)(=O)c2ccc(Cl)cc2)c2cc(C)ccc12 (stereo not drawn) [3l′] | 182 (≈ 368 µM)
16.6 (≈ 33.8 µM) | – | COc1ccc(S(=O)(=O)n2cc(C3OC(c4ccccc4)=NN3C(C)=O)c3ccc(C)cc32)cc1 (stereo not drawn) [3n′] | 11.2 (≈ 22.9 µM)
18.1 (≈ 37.4 µM) | – | CC(=O)N1N=C(c2ccccc2)OC1c1cn(S(=O)(=O)c2ccc(C)cc2)c2ccc(C#N)cc12 (stereo not drawn) [3o′] | 152 (≈ 313 µM)
63.8 (≈ 124 µM) | – | CC(=O)N1N=C(c2ccccc2)OC1c1cn(S(=O)(=O)c2cccc([N+](=O)[O-])c2)c2ccc(C#N)cc12 (stereo not drawn) [3p′] | 135 (≈ 262 µM)
